The source of these data is article PMC9601806, “Calcium Binding Mechanism of Soybean Peptide with Histidine Alteration by Molecular Docking Analysis and Spectroscopic Methods” (Foods, 2022).

Residues, ends and D or L forms follow the SMILES beside them.

Data set [1] can be described thus: Simulated gastrointestinal digestion and Caco-2 absorption, LC-MS/MS identification. It counts as in vitro ADME. To be noted: pepsin pH 2, 37 °C, 90 min, then trypsin and bile salts pH 7.5, Caco-2 absorption 0.1 mg/mL, 2 h. As for the experimental part:
The simulation of gastrointestinal digestion was carried out following the method described before with some modifications. The gastric set was reproduced by the suspension of porcine pepsin (40 mg) into 1 mL 0.1N HCl. The intestinal stage was stimulated by adding bile salts (40 mg) and trypsin (10 mg) into 5 mL of 0.1 mol/L NaHCO3. Gastric digestion was performed by incubating the CBP–calcium complex or CaCl2 (prepared with equal Ca^2+ concentration, pH = 2) at a pepsin/substrate ratio of 1:100 (w/w) in a water bath shaker (37 °C, 90 min). […], the […] at 1:25 (w/w) of substrates was added, following by adjusting the pH to 7.5. After that, samples were removed after deactivating trypsin by thermal denaturation for 5 min. Then, the obtained samples were lyophilized and stored at −20 °C for the sake of subsequent studies.
The human intestinal Caco-2 cell line has been extensively used as an intestinal barrier model. These cells were cultured in high-glucose Dulbecco’s Eagle’s medium (DMEM), which contained 10% fetal bovine serum (FBS), 100 μg mL^−1 streptomycin, and 100 U mL^−1 penicillin, and were incubated at 37 °C in a humidified 5% CO2 incubator. Transepithelial transport through the Caco-2 single cell layer was performed in accordance with Wang et al.’s method. […]

For data set [2] the following is noted: cited from earlier work. As for the experimental part:
To clarify the calcium-binding capacity of CBP-H, Nanjing Peptide Biotechnology Corporation. Ltd. (Nanjing, China) synthesized the peptide CBP-H using a solid-phase procedure. High performance liquid chromatography (HPLC) analysis was performed to determine the purity (98%) of CBP-H (Figure S1A), and ESI mass spectrometry was used to confirm the peptide structure. […] In addition, the CBP-H–Ca complex was prepared, followed by ICP-AES to detect the calcium-binding capacity. […] Spectroscopic methods were used to analyze the binding mode and binding sites including ITC, UV, FTIR, and XRD. Isothermal titration calorimetry was always used to measure reversible reactions between bio-molecules. This methodology provided the affinity constant, stoichiometry, enthalpy, and entropy of the biomolecular interactions.

Consider `CC[C@H](C)[C@H](NC(=O)[C@H](CCC(N)=O)NC(=O)[C@H](CCC(=O)O)NC(=O)[C@H](CC(=O)O)NC(=O)[C@H](CCC(=O)O)NC(=O)[C@@H](N)CC(=O)O)C(=O)N1CCC[C@H]1C(=O)N[C@@H](CO)C(=O)N[C@@H](Cc1c[nH]cn1)C(=O)N1CCC[C@H]1C(=O)N1CCC[C@H]1C(=O)N[C@@H](CCCNC(=N)N)C(=O)O` [CBP, Asp-Glu-Asp-Glu-Gln-IIe-Pro-Ser-His-Pro-Pro-Arg] (H-DEDEQIPSHPPR-OH), for which the “stability after simulated gastrointestinal digestion” value in data set [1] is on record as “partially stable”. On the same count and under the same terms, as for `CC[C@H](C)[C@H](NC(=O)[C@H](CCC(N)=O)NC(=O)[C@H](CCC(=O)O)NC(=O)[C@H](CC(=O)O)NC(=O)[C@H](CCC(=O)O)NC(=O)[C@@H](N)CC(=O)O)C(=O)N1CCC[C@H]1C(=O)N[C@@H](CO)C(=O)N[C@@H](CC(C)C)C(=O)N1CCC[C@H]1C(=O)N1CCC[C@H]1C(=O)N[C@@H](CCCNC(=N)N)C(=O)O` [CBP-H, Asp-Glu-Asp-Glu-Gln-IIe-Pro-Ser-Leu-Pro-Pro-Arg] (H-DEDEQIPSLPPR-OH), the entry is “partially stable”.

Regarding “GPAGPHGPVG [tilapia bone collagen peptide, literature comparison]”, the calcium-binding capacity in data set [2] (tilapia bone collagen peptide) is reported as 18.80 ± 0.49 mg/g. With Thr-Cys-His, the calcium binding capacity in data set [2] (peptide from shrimp protein hydrolysates) is recorded as 2.7 mmol/g.
